Source: patent publication US7683064B2, “Inhibitors of Bruton's tyrosine kinase” (Roche Palo Alto LLC, priority 2008, dated 2010)

Biological target: T1, Btk enzyme (His-tagged, full-length) (Homo sapiens, UniProt Q06187)
T1 construct: 5-10 nM Btk enzyme (His-tagged, full-length); His tag
Test: Bruton's Tyrosine Kinase (Btk) inhibition assay, 33P filtration capture
Type: biochemical
Details: 100 μM ATP, 30 μM biotinylated SH2 peptide substrate, 5-10 nM Btk, 30 min at 30° C.
From the text: The assay is a capture of radioactive ^33P phosphorylated product through filtration. The interactions of Btk, biotinylated SH2 peptide substrate (Src homology), and ATP lead to phosphorylation of the peptide substrate. Biotinylated product is bound streptavidin sepharose beads. All bound, radiolabeled products are detected by scintillation counter.
Plates assayed are 96-well polypropylene (Greiner) and 96-well 1.2 μm hydrophilic PVDF filter plates (Millipore). Concentrations reported here are final assay concentrations: 10-100 μM compounds in DMSO (Burdick and Jackson), 5-10 nM Btk enzyme (His-tagged, full-length), 30 μM peptide substrate (Biotin-Aca-[…]-NH2), 100 μM ATP (Sigma), 8 mM imidazole (Sigma, pH 7.2), 8 mM glycerol-2-phosphate (Sigma), 200 μM EGTA (Roche Diagnostics), 1 mM MnCl2 (Sigma), 20 mM MgCl2 (Sigma), 0.1 mg/ml BSA (Sigma), 2 mM DTT (Sigma), 1 μCi ^33P ATP (Amersham), 20% streptavidin sepharose beads (Amersham), 50 mM EDTA (Gibco), 2 M NaCl (Gibco), 2 M NaCl w/1% phosphoric acid (Gibco), microscint-20 (Perkin Elmer).
IC50 determinations are calculated from 10 data points per compound utilizing data produced from a standard 96-well plate assay template. One control compound and seven unknown inhibitors were tested on each plate and each plate was run twice. Typically, compounds were diluted in half-log starting at 100 μM and ending at 3 nM. The control compound was staurosporine. Background was counted in the absence of peptide substrate. Total activity was determined in the presence of peptide substrate. The following protocol was used to determine Btk inhibition.
1) Sample preparation: The test compounds were diluted at half-log increments in assay buffer (imidazole, glycerol-2-phosphate, EGTA, MnCl2, MgCl2, BSA).
• a.) rinse beads by centrifuging at 500 g • b.) reconstitute the beads with PBS and EDTA to produce a 20% bead slurry 3) Pre-incubate reaction mix without substrate (assay buffer, DTT, ATP, ^33P ATP) and mix with substrate (assay buffer, DTT, ATP, ^33P ATP, peptide substrate) 30° C. for 15 min. 4) To start assay, pre-incubate 10 μL Btk in enzyme buffer (imidazole, glycerol-2-phos-phate, BSA) and 10 μL of test compounds for 10 min at RT. 5) Add 30 μL reaction mixture without or with substrate to Btk and compounds. 6) Incubate 50 μL total assay mix for 30 min at 30° C. 7) Transfer 40 μL of assay to 150 μL bead slurry in filter plate to stop reaction. 8) Wash filter plate after 30 min, with following steps • a. 3×250 μL NaCl • b. 3×250 μL NaCl containing 1% phosphoric acid • c.

T1 sequence (Q06187 whole entry): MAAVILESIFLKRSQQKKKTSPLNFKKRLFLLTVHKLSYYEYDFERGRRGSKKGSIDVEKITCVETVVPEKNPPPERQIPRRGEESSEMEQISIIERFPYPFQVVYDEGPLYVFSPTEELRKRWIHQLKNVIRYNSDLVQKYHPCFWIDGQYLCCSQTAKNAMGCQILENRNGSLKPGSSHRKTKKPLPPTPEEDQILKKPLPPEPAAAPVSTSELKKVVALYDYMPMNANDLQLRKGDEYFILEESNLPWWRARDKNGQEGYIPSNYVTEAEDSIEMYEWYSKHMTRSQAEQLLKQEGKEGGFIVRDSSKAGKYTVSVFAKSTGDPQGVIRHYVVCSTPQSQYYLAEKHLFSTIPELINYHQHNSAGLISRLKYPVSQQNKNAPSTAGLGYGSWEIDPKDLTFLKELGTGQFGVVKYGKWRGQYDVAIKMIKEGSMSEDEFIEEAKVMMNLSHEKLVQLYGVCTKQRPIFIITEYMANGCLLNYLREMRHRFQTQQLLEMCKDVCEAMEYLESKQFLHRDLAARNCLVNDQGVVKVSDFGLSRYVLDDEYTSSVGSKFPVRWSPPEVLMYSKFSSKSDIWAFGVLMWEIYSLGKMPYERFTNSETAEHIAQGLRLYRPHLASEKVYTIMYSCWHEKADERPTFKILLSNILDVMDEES

IC50 [nM] | SMILES
420 | CN(C)c1ccc2c(c1)CCN(c1cccc(-c3cc(Nc4ccc(C(=O)N5CCOCC5)cn4)c(=O)n(C)c3)c1)C2=O [Example I-1, 6-Dimethylamino-2-(3-{1-methyl-5-[5-(morpholine-4-carbonyl)-pyridin-2-ylamino]-6-oxo-1,6-dihydro-pyridin-3-yl}-phenyl)-3,4-dihydro-2H-isoquinolin-1-one]
40 | CN(C)c1ccc2c(c1)CCN(c1cccc(-c3cc(Nc4ccc(C(=O)N5CCOCC5)cn4)c(=O)n(C)c3)c1CO)C2=O [Example I-2, 6-Dimethylamino-2-(2-hydroxymethyl-3-{1-methyl-5-[5-(morpholine-4-carbonyl)-pyridin-2-ylamino]-6-oxo-1,6-dihydro-pyridin-3-yl}-phenyl)-3,4-dihydro-2H-isoquinolin-1-one]
370 | Cc1c(-c2cc(Nc3ccc(C(=O)N4CCOCC4)cn3)c(=O)n(C)c2)cccc1-c1c[nH]c2cc(N(C)C)ccc2c1=O [II-2, 7-Dimethylamino-3-(2-methyl-3-{1-methyl-5-[5-(morpholine-4-carbonyl)-pyridin-2-ylamino]-6-oxo-1,6-dihydro-pyridin-3-yl}-phenyl)-1H-quinolin-4-one]
1080 | CN(C)c1ccc2c(=O)n(-c3cccc(-c4cc(Nc5ccc(C(=O)N6CCOCC6)cn5)c(=O)n(C)c4)c3)ccc2c1 [III-1, 6-Dimethylamino-2-(3-{1-methyl-5-[5-(morpholine-4-carbonyl)-pyridin-2-ylamino]-6-oxo-1,6-dihydro-pyridin-3-yl}-phenyl)-2H-isoquinolin-1-one]
2760 | Cc1c(-c2cc(Nc3ccc(C(=O)N4CCOCC4)cn3)c(=O)n(C)c2)cccc1-n1ccc2cc(N(C)C)ccc2c1=O [III-2, 6-Dimethylamino-2-(2-methyl-3-{1-methyl-5-[5-(morpholine-4-carbonyl)-pyridin-2-ylamino]-6-oxo-1,6-dihydro-pyridin-3-yl}-phenyl)-2H-isoquinolin-1-one]
